Measurements reported in patent US20250064844A1 (Emory University, priority 2020, published 2025).
Read-outs that look alike come from different tables or passages of the source.

Key:
in vitro [1] = details: male, CD-1, mouse, microsomes, pH 7.4
[2] = cynomolgus monkey, in vivo, po; for AUC0->24h / CL / Cmax / Tmax / t1/2: 0.4 mmol/kg
in vitro [3] = details: monkey, plasma
in vitro [4] = details: both, human, plasma
in vitro [5] = details: male, CD-1, mouse, plasma
in vitro [6] = details: male, Sprague-Dawley, rat, plasma
in vitro [7] = details: dog, plasma
[8] = human, in vivo
in vivo = details: ICR (CD-1), mouse, 15 mg/kg
in vitro [9] = details: both, human, microsomes, pH 7.4
in vitro [10] = details: monkey, microsomes, pH 7.4

Compound: CC(C)C(=O)OC[C@H]1O[C@@H](n2ccc(NO)nc2=O)[C@H](OC(=O)C(C)C)[C@@H]1OC(=O)C(C)C [EIDD-2800]
- half-life (in vitro [1]): < 1 min
- F* ([2]; female): ~16%
- F* ([2]; male): ~27%
- half-life at 1 μM (in vitro [3]): 2 min
- half-life at 1 μM (in vitro [4]): 1 min
- half-life at 1 μM (in vitro [5]): 1 min

Compound: CC(C)C(=O)OC[C@H]1O[C@@H](n2ccc(NO)nc2=O)[C@H](O)[C@@H]1O [EIDD-2801]
- half-life at 1 μM (in vitro [6]): 1 min
- half-life at 1 μM (in vitro [7]): 192 min
- AUC0−>t (CEM cells): 85.3 pmol · h/M cells
- Cmax (CEM cells): 5.4 pmol/M Cells
- F* ([2]; female): ~26%
- F* ([2]; male): ~22%
- AUC0−>t (HepG2 cells): 360.3 pmol · h/M cells
- Cmax (HepG2 cells): 18.9 pmol/M Cells
- half-life at 1 μM (in vitro [3]): 24 min
- half-life at 1 μM (in vitro [4]): 63 min
- AUC0−>t (Vero cells): 1724 pmol · h/M cells
- Cmax (Vero cells): 121.2 pmol/M Cells
- half-life at 1 μM (in vitro [5]): 1 min
- AUC0−>t (Huh-7 cells): 1025 pmol · h/M cells
- Cmax (Huh-7 cells): 77.5 pmol/M Cells
- hematological parameters [8]: no clinically significant changes in hematological parameters

Compound: CC(C)[C@H](N)C(=O)OC[C@H]1O[C@@H](n2ccc(NO)nc2=O)[C@H](O)[C@@H]1O [EIDD-2898]
- AUC(0-inf) (in vivo): 8.23 µM·h
- Cmax (in vivo): 23.1 µM
- Tmax (in vivo): 4.8 min
- half-life (in vivo): 20.4 min
- half-life (in vitro [9]): 14 min
- F* ([2]; female): ~15%
- AUC0->24h ([2]; female): 26.9 ± 4.8 µM·h
- CL ([2]; female): 265 ± 53.3 mL/min/kg
- Cmax ([2]; female): 15.9 ± 8.1 µM
- Tmax ([2]; female): 78 ± 30 min
- t1/2 ([2]; female): 33 ± 15 min
- F* ([2]; male): ~18%
- AUC0->24h ([2]; male): 26.1 ± 5.2 µM·h
- CL ([2]; male): 273 ± 51.7 mL/min/kg
- Cmax ([2]; male): 9.1 ± 2.7 µM
- Tmax ([2]; male): 138 ± 57.6 min
- t1/2 ([2]; male): 31.8 ± 9.6 min
- half-life (in vitro [10]): 13 min
- half-life at 1 μM (in vitro [3]): 138 min
- half-life at 1 μM (in vitro [4]): 198 min
- half-life at 1 μM (in vitro [5]): 144 min
